{"source": "patent US20240397946A1", "about": "(priority 2021, published 2024)", "key": {"[1]": {"conditions": "cited from earlier work; for Classification (acid/base) / dissociation constant - Pka: triazole fungicides, PPDB"}, "[2]": {"conditions": "triazole fungicides; PPDB; cited from earlier work"}, "[3]": {"conditions": "PPDB, cited from earlier work; for Solubility in water: triazole fungicides"}, "[4]": {"experiment": "Percentage of light absorption of the three active ingredients between 200 and 330 nm", "conditions": "for Percentage of light absorption: typical application concentrations"}, "[5]": {"experiment": "Levels of fungicides in soybean leaves (total, internal, leaf surface, rainwater) at 3, 6 and 11 DAA, normalized by dose"}, "[6]": {"design": "RL50 min / RL50 max / RL50 average: unit not given beside the values", "conditions": "cited from earlier work; for average daily rates of degradation: PPDB"}, "[7]": {"conditions": "soybean, in vivo"}, "Corynespora cassiicola": {"test_system": "Corynespora cassiicola", "experiment": "Target spot severity, AUDPC and control efficiency on soybean, Anaurilândia, MS", "conditions": "2020"}, "[8]": {"conditions": "strobilurin group; PPDB / PubChem; cited from earlier work"}, "[9]": {"experiment": "Persistence of fungicides in the plant matrix (RL50, half-life, daily degradation; literature)"}, "[10]": {"conditions": "Grape, Italy, Fruit, In and On, Open field, Garau 2009"}, "[11]": {"conditions": "Green bean, Egypt, Leaves, On, Open field, Hanafi 2010"}, "[12]": {"conditions": "Peanut, India, Leaves, In and On, Open field, Rao 2013"}, "[13]": {"conditions": "Rice, China, Whole plant, In and On, Open field, Guo 2017"}, "[14]": {"conditions": "Spring onion, Egypt, Leaves, On, Open field, Hanafi"}, "[15]": {"conditions": "Strawberry, China, Fruit, In and On, Undercover, Zhang 2009"}, "[16]": {"conditions": "Strawberry, China, Fruit, On, Undercover, Wang Z. 2015"}, "[17]": {"conditions": "Tomato, Fruit, In and On, Undercover, Jankowska 2016"}}, "note": "Values joined by “and” are separate entries in the source; they are usually repeats but may differ in a detail not shown here. Identical values can stand only once. Like-named read-outs stand apart in the source and are kept apart here."}
{"smiles": "Fc1ccc([C@]2(Cn3cncn3)O[C@H]2c2ccccc2Cl)cc1", "note": "(racemic) [epoxiconazole]", "values": [{"measurement": "Classification (acid/base)", "setting": "[1]", "value": "no dissociation"}]}
{"smiles": "Clc1ccc(C2(Cn3cncn3)OCCO2)c(Cl)c1", "note": "[azaconazole]", "values": [{"measurement": "Classification (acid/base)", "setting": "[1]", "value": "very weak base"}, {"measurement": "Log Kow (Log de P)", "setting": "[2]", "value": 2.36}, {"measurement": "Solubility in water", "setting": "[3]", "value": 300, "unit": "mg/L oR PPM"}]}
{"smiles": "Clc1ccc(C2(Cn3cncn3)CC(Br)CO2)c(Cl)c1", "note": "(centres unmarked) [bromuconazole]", "values": [{"measurement": "Classification (acid/base)", "setting": "[1]", "value": "strong acid"}, {"measurement": "Log Kow (Log de P)", "setting": "[2]", "value": 3.24}, {"measurement": "Solubility in water", "setting": "[3]", "value": 48.3, "unit": "mg/L oR PPM"}]}
{"smiles": "N#Cc1c(Cl)c(Cl)c(Cl)c(C#N)c1Cl", "note": "[chlorothalonil]", "values": [{"measurement": "Percentage of light absorption", "setting": "[4]; Partial UVA, 315 a 330 nm", "value": 100, "unit": "%"}, {"measurement": "Percentage of light absorption", "setting": "[4]; Partial UVC, 200 a 280 nm", "value": 98.35, "unit": "%"}, {"measurement": "Percentage of light absorption", "setting": "[4]; UVB, 280 a 315 nm", "value": 99.95, "unit": "%"}, {"measurement": "ultraviolet light absorbed between 200 and 330 nm", "setting": "[4]; typical concentrations of application in the field", "value": "practically all"}, {"measurement": "average total levels for all commercial products and evaluated prototypes", "setting": "[5]; 03 DAA, 40 to 50 repetitions", "value": "210 (ng/g)/(g/ha)"}, {"measurement": "average total levels for all commercial products and evaluated prototypes", "setting": "[5]; 06 DAA", "value": 132, "unit": "ng.ha/g2"}, {"measurement": "average total levels for all commercial products and evaluated prototypes", "setting": "[5]; 11 DAA", "value": 66, "unit": "ng.ha/g2"}, {"measurement": "average daily rates of degradation", "setting": "[6]; […]", "value": 12.9, "unit": "%"}, {"measurement": "average daily rates of degradation", "setting": "[6]; only on the surface of plant tissues", "value": 11.8, "unit": "%"}, {"measurement": "solubility", "setting": "[3]", "value": 0.81, "unit": "ppm"}, {"measurement": "water solubilities", "setting": "[3]", "value": 0.81, "unit": "mg/L"}]}
{"smiles": "CC(C1CC1)C(O)(Cn1cncn1)c1ccc(Cl)cc1", "note": "(centres unmarked) [cyproconazole]", "values": [{"measurement": "Percentage of light absorption", "setting": "[4]; Partial UVA, 315 a 330 nm", "value": 0.00000, "unit": "%"}, {"measurement": "Percentage of light absorption", "setting": "[4]; Partial UVC, 200 a 280 nm", "value": 0.3824, "unit": "%"}, {"measurement": "Percentage of light absorption", "setting": "[4]; UVB, 280 a 315 nm", "value": 0.00943, "unit": "%"}, {"measurement": "Classification (acid/base)", "setting": "[1]", "value": "no dissociation"}, {"measurement": "average total levels for all commercial products and evaluated prototypes", "setting": "[7]; 3 days after application", "value": "267 (ng/g)/(g/ha)"}, {"measurement": "percentage of the internal content in relation to the total content", "setting": "[7]; 3 days after application", "value": 69, "unit": "%"}, {"measurement": "average total levels for all commercial products and evaluated prototypes", "setting": "[7]; 6 days after application", "value": 173, "unit": "ng.ha/g2"}, {"measurement": "percentage of the internal content in relation to the total content", "setting": "[7]; 6 days after application", "value": 62, "unit": "%"}, {"measurement": "average total levels for all commercial products and evaluated prototypes", "setting": "[7]; 11 days after application", "value": 83, "unit": "ng.ha/g2"}, {"measurement": "percentage of the internal content in relation to the total content", "setting": "[7]; 11 days after application", "value": 85, "unit": "%"}]}
{"smiles": "CC1COC(Cn2cncn2)(c2ccc(Oc3ccc(Cl)cc3)cc2Cl)O1", "note": "(centres unmarked) [difenoconazole]", "values": [{"measurement": "Classification (acid/base)", "setting": "[1]", "value": "strong acid"}, {"measurement": "dissociation constant - Pka", "setting": "[1]", "value": 1.07}, {"measurement": "Log Kow (Log de P)", "setting": "[2]", "value": 4.36}]}
{"smiles": "N#CC(CCc1ccc(Cl)cc1)(Cn1cncn1)c1ccccc1", "note": "(centres unmarked) [fenbuconazole]", "values": [{"measurement": "Classification (acid/base)", "setting": "[1]", "value": "no dissociation"}, {"measurement": "Log Kow (Log de P)", "setting": "[2]", "value": 3.79}, {"measurement": "Solubility in water", "setting": "[3]", "value": 2.47, "unit": "mg/L oR PPM"}]}
{"smiles": "O=c1c2cc(F)ccc2nc(-n2cncn2)n1-c1ccc(Cl)cc1Cl", "note": "[fluquinconazole]", "values": [{"measurement": "Classification (acid/base)", "setting": "[1]", "value": "strong acid"}, {"measurement": "Log Kow (Log de P)", "setting": "[2]", "value": 3.24}]}
{"smiles": "CCCCC(O)(Cn1cncn1)c1ccc(Cl)cc1Cl", "note": "(centres unmarked) [hexaconazole]", "values": [{"measurement": "Classification (acid/base)", "setting": "[1]", "value": "strong acid"}]}
{"smiles": "CC1(C)CCC(Cc2ccc(Cl)cc2)C1(O)Cn1cncn1", "note": "(centres unmarked) [metconazole]", "values": [{"measurement": "Classification (acid/base)", "setting": "[1]", "value": "very weak acid"}]}
{"smiles": "CC(Cc1ccc(C(C)(C)C)cc1)CN1C[C@@H](C)O[C@@H](C)C1", "note": "(some centres unmarked) [phenpropimorph]", "values": [{"measurement": "Severity (%) of target spot on soybean plants, Av5", "setting": "Corynespora cassiicola; fifth assessment", "value": 29.4, "unit": "D %"}, {"measurement": "Severity (%) of target spot on soybean plants, Av1", "setting": "Corynespora cassiicola; first assessment", "value": 0, "unit": "%"}, {"measurement": "Severity (%) of target spot on soybean plants, Av4", "setting": "Corynespora cassiicola; fourth assessment", "value": 8.0, "unit": "A %"}, {"measurement": "Severity (%) of target spot on soybean plants, Av2", "setting": "Corynespora cassiicola; second assessment", "value": 1.4, "unit": "A %"}, {"measurement": "Severity (%) of target spot on soybean plants, Av6", "setting": "Corynespora cassiicola; sixth assessment", "value": 37.2, "unit": "C %"}, {"measurement": "area under the disease progress curve (AUDPC)", "setting": "Corynespora cassiicola; target spot, from six severity assessments", "value": 688.9, "unit": "D"}, {"measurement": "Severity (%) of target spot on soybean plants, Av3", "setting": "Corynespora cassiicola; third assessment", "value": 4.6, "unit": "A %"}]}
{"smiles": "CCCC1COC(Cn2cncn2)(c2ccc(Cl)cc2Cl)O1", "note": "(centres unmarked) [propiconazole]", "values": [{"measurement": "Classification (acid/base)", "setting": "[1]", "value": "very weak base"}, {"measurement": "Log Kow (Log de P)", "setting": "[2]", "value": 3.72}]}
{"smiles": "OC(Cc1ccccc1Cl)(Cn1nc[nH]c1=S)C1(Cl)CC1", "note": "(centres unmarked) [prothioconazole]", "values": [{"measurement": "Classification (acid/base)", "setting": "[1]", "value": "weak acid"}, {"measurement": "dissociation constant - Pka", "setting": "[1]", "value": 6.9}, {"measurement": "Log Kow (Log de P)", "setting": "[2]", "value": 2}, {"measurement": "Solubility in water", "setting": "[3]", "value": 22.5, "unit": "mg/L oR PPM"}]}
{"smiles": "COC(=O)N(OC)c1ccccc1COc1ccn(-c2ccc(Cl)cc2)n1", "note": "[pyraclostrobin]", "values": [{"measurement": "ionization", "setting": "[1]; strobilurin group, PPDB / PubChem", "value": "not ionizable"}, {"measurement": "Steam pressure", "setting": "[8]", "value": "2.60E−05", "unit": "mpa"}, {"measurement": "RL50 average", "setting": "[6]; [10]", "value": 5.40}, {"measurement": "RL50 max", "setting": "[6]; [10]", "value": 5.40}, {"measurement": "RL50 min", "setting": "[6]; [10]", "value": 5.40}, {"measurement": "RL50 average", "setting": "[6]; [11]", "value": 4.30}, {"measurement": "RL50 max", "setting": "[6]; [11]", "value": 4.30}, {"measurement": "RL50 min", "setting": "[6]; [11]", "value": 4.30}, {"measurement": "RL50 average", "setting": "[6]; [12]", "value": 2.86}, {"measurement": "RL50 max", "setting": "[6]; [12]", "value": 2.88}, {"measurement": "RL50 min", "setting": "[6]; [12]", "value": 2.84}, {"measurement": "RL50 average", "setting": "[6]; [13]", "value": 10.10}, {"measurement": "RL50 max", "setting": "[6]; [13]", "value": 13.90}, {"measurement": "RL50 min", "setting": "[6]; [13]", "value": 6.30}, {"measurement": "RL50 average", "setting": "[6]; [14]", "value": 3.10}, {"measurement": "RL50 max", "setting": "[6]; [14]", "value": 3.10}, {"measurement": "RL50 min", "setting": "[6]; [14]", "value": 3.10}, {"measurement": "RL50 average", "setting": "[6]; [15]", "value": 4.06}, {"measurement": "RL50 max", "setting": "[6]; [15]", "value": 4.06}, {"measurement": "RL50 min", "setting": "[6]; [15]", "value": 4.06}, {"measurement": "RL50 average", "setting": "[6]; [16]", "value": 3.70}, {"measurement": "RL50 max", "setting": "[6]; [16]", "value": 3.70}, {"measurement": "RL50 min", "setting": "[6]; [16]", "value": 3.70}, {"measurement": "RL50 average", "setting": "[6]; [17]", "value": "2.78 and 2.70"}, {"measurement": "RL50 max", "setting": "[6]; [17]", "value": "2.78 and 2.70"}, {"measurement": "RL50 min", "setting": "[6]; [17]", "value": "2.78 and 2.70"}, {"measurement": "Daily percentage of degradation", "setting": "[9]; in plants, from the literature observations of Table 04", "value": 14.78, "unit": "%"}, {"measurement": "half-life", "setting": "[9]; in vivo", "value": 104, "unit": "h"}]}
{"smiles": "CC(C)(C)C(O)(CCc1ccc(Cl)cc1)Cn1cncn1", "note": "(centres unmarked) [tebuconazole]", "values": [{"measurement": "Log Kow (Log de P)", "setting": "[2]", "value": 3.7}]}
{"smiles": "FC(F)C(F)(F)OCC(Cn1cncn1)c1ccc(Cl)cc1Cl", "note": "(centres unmarked) [tetraconazole]", "values": [{"measurement": "Classification (acid/base)", "setting": "[1]", "value": "strong acid"}]}
{"smiles": "CC1(C)CCC(=Cc2ccc(Cl)cc2)C1(O)Cn1cncn1", "note": "(centres unmarked) [triticonazole]", "values": [{"measurement": "Classification (acid/base)", "setting": "[1]", "value": "no dissociation"}]}
{"smiles": "CC(C)(C)C(O)/C(=C\\c1ccc(Cl)cc1)n1cncn1", "note": "(centres unmarked) [uniconazole]", "values": [{"measurement": "Classification (acid/base)", "setting": "[1]", "value": "very weak acid"}]}
